What all share (assay): NCI-60 cell line screen, 48 h
In assay [1] the test system is MALME-3M melanoma.
In assay [2] the test system is SK-MEL-2 melanoma.
The subject of assay [3] is SK-OV-3 ovarian.
The subject of assay [4] is OVCAR-4 ovarian.
Assay [5] deals with LOX IMVI melanoma.
Assay [6] deals with NCI-H522 lung.
In assay [7] the test system is KM12 colon.
Assay [8] relates to HT29 colon.
Assay [9] concerns NCI-H23 lung.
The test system of assay [10] is SNB-75 CNS.
For assay [11], the system named is OVCAR-8 ovarian.
Assay [12] has as its system COLO 205 colon.
Assay [13] deals with HL-60(TB) leukemia.
Assay [14] deals with MDA-MB-435.
In assay [15] the test system is MCF7 breast.
The test system of assay [16] is DU-145 prostate.
The test system of assay [17] is BT-549 breast.
Assay [18] relates to K-562 leukemia.
Assay [19] relates to T-47D breast.
Assay [20] has as its system MDA-N.

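Growth conditions: 96-well plates. Treatment: test compound, 48 hours, 5 concentrations. Analysis: linear interpolation between bracketing concentrations; unreached endpoints set to highest concentration. TGI: concentration producing complete growth inhibition.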

Regarding `COC(=O)C(Cc1nc2ccccc2[nH]c1=O)C(=O)C(=O)Nc1ccc(F)cc1` (centres undefined), the TGI is 79.5 µM in assay [1]; above 100 µM in [2]; above 100 µM in [3]; above 100 µM in assay [4]; above 100 µM in assay [5]; 22.3 µM in assay [6]. The TGI in [7] is above 100 µM; in [8], above 100 µM; in assay [9], above 100 µM; in [10] it was above 100 µM; in assay [11], 38.6 µM; in assay [12] it was above 100 µM. This molecule came in with a TGI in assay [13] above 100 µM.
For `Cc1ccc(S(=O)(=O)Oc2nc3nc4ccccc4nc3nc2OS(=O)(=O)c2ccc(C)cc2)cc1`, the TGI in assay [14], in assay [15], in [1], in assay [2], in assay [3] and in assay [6] was above 100 µM throughout. The TGI in assay [7], in [8], in assay [9], in assay [10], in assay [11] and in assay [12] was above 100 µM each time. The TGI in assay [16] and in [17] was above 100 µM throughout.
On to `COc1ccc(/C=C2\N=C(c3ccccc3)OC2=O)cc1OC(C)=O`, for which the TGI was above 100 µM in [14]; above 100 µM in [15]; 68.6 µM in assay [1]; 83.5 µM in [2]; above 100 µM in [18]; above 100 µM in assay [3]. Also, the TGI in assay [19], in assay [4], in assay [5], in [8], in [9] and in assay [10] was above 100 µM in each case. Besides, the TGI in assay [11], in assay [12], in [16], in assay [17] and in assay [13] was above 100 µM throughout.
As for `COC1=CC(=O)C2C(C1=O)C(c1ccc(Cl)cc1)[C@@H]2C` (some centres undefined), the TGI in assay [1] is 46 µM; in assay [2], above 100 µM; in assay [18], above 100 µM; in assay [3] it was above 100 µM; in [4], above 100 µM; in assay [5] it was above 100 µM. The TGI is 29.8 µM in assay [6]; above 100 µM in assay [7]; above 100 µM in [8]; above 100 µM in [9]; 64.8 µM in assay [10]; 67.4 µM in assay [11]. The values for the TGI in assay [12] and in assay [13] were above 100 µM and 55.7 µM, respectively.
As to `COc1ccc2c(c1)/C(=C\c1c(Cl)n(-c3ccccc3)c3ccccc13)C(=O)N2`, the TGI is 29.5 µM in [15]; 19.3 µM in [1]; 51.1 µM in [2]; above 100 µM in assay [18]; above 100 µM in assay [3]; 75.4 µM in [19]. For the same molecule, the TGI in assay [4] is 41.4 µM; in assay [5] it was 92.7 µM; in assay [7] it was 14.7 µM; in assay [8] it was 14.2 µM; in assay [9], 38.4 µM; in assay [10], 52.2 µM. Also, the TGI was above 100 µM in [11]; 21.9 µM in assay [12]; 21.4 µM in [16]; 51.3 µM in assay [17]; 10.7 µM in assay [13].
Turning to `Cc1nc2ccc(N)cc2[nH]c1=O`, the TGI in assay [1], in assay [2], in assay [18], in assay [3], in assay [4] and in assay [5] was above 100 µM in each case. Moreover, the TGI in [7], in assay [11], in [12] and in [13] was above 100 µM in each case.
In the case of `N#CC1CCCCC1NC1(C#N)CCCCC1` (centres undefined), the TGI in assay [1], in assay [2], in assay [18], in [3], in [5] and in assay [6] was above 100 µM each time. For the same molecule, the TGI in [7], in [8], in assay [9], in assay [10], in [11] and in assay [12] was above 100 µM in each case. Moreover, the TGI in [13] is above 100 µM.
In the case of `C=C(C)CC(C)(c1cc2ccccc2n1C)N1CCOCC1` (centres undefined), the TGI in assay [1] was above 100 µM; in [2], above 100 µM; in [3], above 100 µM; in [4], above 100 µM; in [5], above 100 µM; in assay [6] it was 60.9 µM. In addition, the TGI in assay [7], in assay [8], in assay [9], in [10], in assay [11] and in assay [12] was above 100 µM throughout. The TGI in [13] was above 100 µM.
For the molecule `CCn1c(O)c(C=Nc2ccccc2)s/c1=N/Nc1nc(-c2ccc(O)c(O)c2)cs1`, the TGI in [15] is above 100 µM; in assay [1], above 100 µM; in [2], above 100 µM; in [18], 26.5 µM; in assay [3] it was above 100 µM; in assay [4] it was above 100 µM. For the same molecule, the TGI in assay [5] is above 100 µM; in [6], 98.2 µM; in [7] it was above 100 µM; in [8], above 100 µM; in assay [9] it was above 100 µM; in assay [10], above 100 µM. Also, the TGI in assay [11] was above 100 µM; in [12], above 100 µM; in assay [16], above 100 µM; in assay [13], 6.04 µM.
With `CCOC(=O)CC(NCc1ccc(N=Cc2nc3ccc(C(F)(F)F)cc3nc2-c2ccccc2)cc1)C(=O)OCC` (centres undefined), the TGI in assay [1] was above 100 µM; in assay [2] it was above 73.3 µM; in assay [18], above 100 µM; in assay [3] it was above 100 µM; in assay [4], above 100 µM; in assay [5], above 100 µM. The TGI was above 100 µM in assay [6]; above 100 µM in assay [7]; above 100 µM in [8]; above 100 µM in assay [9]; above 77 µM in [10]; above 100 µM in [11]. The TGI in [12] and in [13] was above 100 µM throughout.
`C[N+]1(C)C[C@@H](O)C[C@@H]1C(=O)[O-]`: the TGI in assay [1], in assay [2], in [18], in assay [3], in assay [4] and in assay [5] was above 100 µM in each case. Besides, the TGI in assay [6], in assay [7], in [8], in assay [9], in [10] and in assay [11] was above 100 µM in each case. The TGI in assay [12] and in [13] was above 100 µM throughout.
On to `Cc1c/c(=N/NC(=O)c2ccncc2)n2nc(N)sc2n1`, for which the TGI in assay [14], in assay [15], in assay [2], in assay [18], in assay [3] and in [4] was above 100 µM each time. The TGI in [5], in assay [6], in assay [7], in assay [8], in [9] and in assay [10] was above 100 µM throughout. Further, the TGI in [11], in assay [12], in assay [16], in assay [17] and in assay [13] was above 100 µM throughout.
As for `CSc1nc2nc(C(O)C(O)C(O)CO)cnc2c(=O)[nH]1` (centres undefined), the TGI in assay [1], in assay [2], in assay [3], in assay [5], in assay [6] and in assay [7] was above 100 µM throughout. In addition, the TGI in [8], in [9], in assay [10], in [11], in assay [12] and in [13] was above 100 µM throughout.
On to `Cc1ccc(/C=C2\NC(=S)N(CN3CCCCC3)C2=O)cc1`, for which the TGI in assay [14], in assay [15], in assay [1], in [20], in [2] and in assay [18] was above 100 µM each time. The TGI in [3] was above 100 µM; in [4], above 100 µM; in assay [5] it was above 100 µM; in assay [6] it was above 100 µM; in assay [7], above 100 µM; in [8], 72.7 µM. Moreover, the TGI in assay [9] was above 100 µM; in assay [10], above 100 µM; in [11], above 100 µM; in [12], 39.8 µM; in assay [16], above 100 µM.
For the molecule `CCOC(=O)C1=C(c2ccccc2)N(C(C)=O)Cc2ccccc21`, the TGI was 46.7 µM in assay [1]; 38.2 µM in assay [2]; above 100 µM in assay [18]; above 100 µM in assay [3]; above 100 µM in assay [4]; 33.2 µM in assay [5]. The TGI in assay [6] was 51.7 µM; in assay [7] it was 30.3 µM; in assay [8], 33.8 µM; in assay [9], 34.5 µM; in assay [10] it was 77.1 µM; in assay [11], above 100 µM. For the same molecule, the values for the TGI in [12] and in assay [13] were 32 µM and 37.5 µM, respectively.
Take `CCSc1nnc(-c2ccccc2)nc1Cc1ccc(OC)cc1`: the TGI in [1], in assay [2], in assay [18], in assay [3], in assay [4] and in [5] was above 100 µM in each case. In addition, the TGI in [6], in [7], in [8], in [9], in assay [10] and in assay [11] was above 100 µM each time. Further, the TGI in [12] and in assay [13] was above 100 µM throughout.
In the case of `O=C(c1ccccc1)N1CCC(Nc2nccs2)O1` (centres undefined), the TGI in [14], in assay [15], in [1], in assay [2], in assay [18] and in [3] was above 10 µM each time. The TGI in [19], in assay [4], in [5], in assay [6], in assay [8] and in assay [9] was above 10 µM in each case. Also, the TGI in assay [10], in assay [11], in [12], in assay [16], in [17] and in assay [13] was above 10 µM in each case.
As for `CC(=O)N(CCCCNC(=O)C(F)(F)F)CCCNC(=O)C(F)(F)F`, the TGI in assay [14], in [15], in assay [2], in assay [18], in [3] and in assay [19] was above 100 µM throughout. Besides, the TGI in assay [4], in assay [6], in assay [7], in [8], in [9] and in assay [10] was above 100 µM throughout. For the same molecule, the TGI in assay [11], in assay [12], in [16], in assay [17] and in [13] was above 100 µM in each case.

For the origin of these results see PubChem BioAssay (NCI).
